In patent US10669258B2, “3-sulfonyl-5-aminopyridine-2,4-diol APJ agonists” (BRISTOL-MYERS SQUIBB COMPANY, priority 2016, dated 2020) one finds EC50 data, which are given here for 26 molecules.

In this test the target is T1, human APJ receptor (Homo sapiens, UniProt P35414).
T1 construct: expressed in transfected cells; host or cells: HEK293
T1 sequence (P35414 1-380): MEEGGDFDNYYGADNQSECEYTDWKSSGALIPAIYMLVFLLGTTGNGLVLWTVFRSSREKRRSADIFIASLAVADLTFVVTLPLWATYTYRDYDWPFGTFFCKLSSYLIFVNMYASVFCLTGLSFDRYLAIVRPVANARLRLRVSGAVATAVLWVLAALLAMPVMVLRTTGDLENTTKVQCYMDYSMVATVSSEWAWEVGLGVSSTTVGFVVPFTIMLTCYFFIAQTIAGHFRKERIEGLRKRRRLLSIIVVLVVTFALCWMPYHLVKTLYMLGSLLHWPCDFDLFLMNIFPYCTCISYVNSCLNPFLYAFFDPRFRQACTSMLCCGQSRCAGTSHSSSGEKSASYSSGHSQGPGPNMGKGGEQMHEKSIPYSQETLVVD
Kind of test: Intracellular cAMP accumulation assay (APJ hcAMP, HTRF). Type of test: cell-based. Conditions: HEK293 cells stably expressing human APJ receptor; inhibition of forskolin-mediated cAMP production; Table 1; read-out: hAPJ cAMP EC50 Potency range. Summed up: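 HEK293 cells stably expressing the receptor (5,000/well) treated with compound plus […] and 2 μM forskolin for 30 min at room temperature; cAMP by HTRF against a cAMP standard curve. EC50 from variable-slope sigmoidal fit; Ymax as % of (Pyr1)apelin-13 inhibition.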
On the technique in general: cAMP levels reflect the balance of adenylyl cyclase and phosphodiesterase activity.

For orientation: EC50 means the concentration needed to bring the measured effect to its halfway point. With `CC(C)N(c1ccccc1)c1c(-c2ccn(C)n2)nc(O)c(S(=O)(=O)c2ccc(-c3ccc(F)cc3C(N)=O)cc2)c1O` [Example 161, 4′-((2,4-dihydroxy-5-(isopropyl(phenyl)amino)-6-(1-methyl-1H-pyrazol-3-yl)pyridin-3-yl)sulfonyl)-4-fluoro-[1,1′-biphenyl]-2-carboxamide], the EC50 lay within 0.01 to 10 nM.
Next, `CC(C)N(c1ccccc1)c1c(-c2ccn(C)n2)nc(O)c(S(=O)(=O)c2ccc(-c3ccccc3C(=O)NC3CC3)cc2)c1O` [Example 162, N-cyclopropyl-4′-((2,4-dihydroxy-5-(isopropyl(phen-yl)amino)-6-(1-methyl-1H-pyrazol-3-yl)pyridin-3-y)sulfonyl)-[1,1′-biphenyl]-2-carboxamide]: 0.01 to 10 nM.
Next, `CNC(=O)c1cccc(-c2ccc(S(=O)(=O)c3c(O)nc(-c4ccn(C)n4)c(N(c4ccccc4)C(C)C)c3O)cc2)c1` [Example 163, 4′-((2,4-dihydroxy-5-(isopropyl(phen-yl)amino)-6-(1-methyl-1H-pyrazol-3-yl)pyridin-3-yl)sulfonyl)-N-methyl-[1,1′-biphenyl]-3-carboxamide]: 0.01 to 10 nM; `Cc1c(-c2ccc(S(=O)(=O)c3c(O)nc(-c4ccn(C)n4)c(N(c4ccccc4)C(C)C)c3O)cc2)ccnc1F` [Example 164, 3-((4-(2-fluoro-3-methylpyridin-4-yl)phenyl)sulfonyl)-5-(isopropyl(phen-yl)amino)-6-(1-methyl-1H-pyrazol-3-yl)pyridine-2,4-diol]: 0.01 to 10 nM.
Next, `Cc1ncccc1-c1ccc(S(=O)(=O)c2c(O)nc(-c3ccn(C)n3)c(N(c3ccccc3)C(C)C)c2O)cc1` [Example 165, 5-(iso-propyl(phenyl)amino)-6-(1-methyl-1H-pyrazol-3-yl)-3-((4-(2-methylpyridin-3-yl)phenyl)sulfonyl)pyri-dine-2,4-diol]: 0.01 to 10 nM; `CC(C)N(c1ccccc1)c1c(-c2ccn(C)n2)nc(O)c(S(=O)(=O)c2ccc(-c3ccccc3C(N)=O)cc2)c1O` [Example 166, 4′-((2,4-dihydroxy-5-(isopropyl(phen-yl)amino)-6-(1-methyl-1H-pyrazol-3-yl)pyridin-3-yl)sulfonyl)-[1,1′-biphenyl]-2-carboxamide]: 0.01 to 10 nM; `CCCCc1nc(O)c(S(=O)(=O)c2ccc(-c3ccccc3C(N)=O)cc2)c(O)c1N1CCCOc2ccccc21` [Example 168, 4′-((6-butyl-5-(3,4-dihydrobenzo[b][1,4]ox-azepin-5(2H)-yl)-2,4-dihydroxypyridin-3-yl)sulfonyl)-[1,1′-biphenyl]-2-carboxamide]: 0.01 to 10 nM.
With `CCCCc1nc(O)c(S(=O)(=O)c2ccc(-c3ccncc3C)cc2)c(O)c1N1CCCCc2ccccc21` [Example 169, 6-butyl-3-((4-(3-methylpyridin-4-yl)phenyl)sulfonyl)-5-(2,3,4,5-tetrahydro-1H-benzo[b]azepin-1-yl)pyridine-2,4-diol], the half-maximal effective concentration (EC50) fell in the range of 10 to 100 nM.
Next, `CCCCc1nc(O)c(S(=O)(=O)c2ccc(-c3ccncc3C)cc2)c(O)c1N(CC)c1cccc(C#N)c1` [Example 170, 3-((2-butyl-4,6-dihydroxy-5-((4-(3-methylpyridin-4-yl)phenyl)sulfonyl)pyri-din-3-yl)(ethyl)amino)benzonitrile]: 0.01 to 10 nM.
Next, `CCCCc1nc(O)c(S(=O)(=O)c2ccc(-c3ccccc3C(=O)N(C)C)cc2)c(O)c1N(C)c1ccccc1F` [Example 171, 4′-((6-butyl-5-((2-fluorophenyl)(methyl)a-mino)-2,4-dihydroxypyridin-3-yl)sulfonyl)-N,N-dimethyl-[1,1′-biphenyl]-2-carboxamide]: 0.01 to 10 nM; `CCCCc1nc(O)c(S(=O)(=O)c2ccc(-c3ccnc(F)c3C)cc2)c(O)c1N(CC)c1cccc(C#N)c1` [Example 172, 3-((2-butyl-5-((4-(2-fluoro-3-methylpyridin-4-yl)phenyl)sulfonyl)-4,6-dihydroxypyridin-3-yl)(ethyl)amino)benzonitrile]: 0.01 to 10 nM.
Next, `CCCCc1nc(O)c(S(=O)(=O)c2ccc(-c3cccnc3C)cc2)c(O)c1N1CCCCc2ccccc21` [Example 173, 6-butyl-3-((4-(2-methylpyridin-3-yl)phenyl)sulfonyl)-5-(2,3,4,5-tetrahydro-1H-benzo[b]azepin-1-yl)pyridine-2,4-diol]: 10 to 100 nM.
`CCCCc1nc(O)c(S(=O)(=O)c2ccc(-c3ccccc3C(N)=O)cc2)c(O)c1N(C)c1ccccc1F` [Example 174, 4′-((6-butyl-5-((2-fluorophenyl)(methyl)a-mino)-2,4-dihydroxypyridin-3-yl)sulfonyl)-[1,1′-biphenyl]-2-carboxamide]: the EC50 lay within 0.01 to 10 nM.
The value for `CCCCc1nc(O)c(S(=O)(=O)c2ccc(-c3cccnc3C)cc2)c(O)c1N(CC)c1cccc(C#N)c1` [Example 175, 3-((2-butyl-4,6-dihydroxy-5-((4-(2-methylpyridin-3-yl)phenyl)sulfonyl)pyri-dine-3-yl)(ethyl)amino)benzonitrile] was 0.01 to 10 nM; that for `CCCCc1nc(O)c(S(=O)(=O)c2ccc(-c3ccccc3C(=O)NC)cc2)c(O)c1N(C)c1ccccc1F` [Example 176, 4′-((6-butyl-5-((2-fluorophenyl)(methyl)a-mino)-2,4-dihydroxypyridin-3-yl)sulfonyl)-N-methyl-[1,1′-biphenyl]-2-carboxamide] was 0.01 to 10 nM.
Next, `CCCCc1nc(O)c(S(=O)(=O)c2ccc(-c3ccc(F)nc3C)cc2)c(O)c1N1CCCCc2ccccc21` [Example 177, 6-butyl-3-((4-(6-fluoro-2-methylpyridin-3-yl)phenyl)sulfonyl)-5-(2,3,4,5-tetrahydro-1H-benzo[b]azepin-1-yl)pyridine-2,4-diol]: 10 to 100 nM.
With `CCCCc1nc(O)c(S(=O)(=O)c2ccc(-c3ccc(F)nc3C)cc2)c(O)c1N(CC)c1cccc(C#N)c1` [Example 178, 3-((2-butyl-5-((4-(6-fluoro-2-methylpyridin-3-yl)phenyl)sulfonyl)-4,6-dihydroxypyridin-3-yl)(ethyl)amino)benzonitrile], the concentration giving a half-maximal response (EC50) lay within 0.01 to 10 nM.
The value for `CCCCc1nc(O)c(S(=O)(=O)c2ccc(-c3ccccc3C(=O)N(C)C)cc2)c(O)c1N1CCCCc2ccccc21` [Example 179, 4′-((6-butyl-2,4-dihydroxy-5-(2,3,4,5-tetrahydro-1H-benzo[b]azepin-1-yl)pyridin-3-yl)sulfonyl)-N,N-dimethyl-[1,1′-biphenyl]-2-carboxamide] was 10 to 100 nM; that for `CCCCc1nc(O)c(S(=O)(=O)c2ccc(-c3ccnc(F)c3C)cc2)c(O)c1N1CCCCc2ccccc21` [Example 180, 6-butyl-3-((4-(2-fluoro-3-methylpyridin-4-yl)phenyl)sulfonyl)-5-(2,3,4,5-tetrahydro-1H-benzo[b]azepin-1-yl)pyridine-2,4-diol] was 0.01 to 10 nM; that for `CCCCc1nc(O)c(S(=O)(=O)c2ccc(-c3ccccc3C(N)=O)cc2)c(O)c1N(CC)c1cccc(C#N)c1` [Example 181, 4′-((6-butyl-5-((3-cyanophenyl)(ethyl)a-mino)-2,4-dihdyroxypyridin-3-yl)sulfonyl)-[1,1′-biphenyl]-2-carboxamide] was 0.01 to 10 nM.
Next, `CCCCc1nc(O)c(S(=O)(=O)c2ccc(-c3ccccc3C(=O)NC)cc2)c(O)c1N(CC)c1cc(C)cc(C)c1` [Example 182, 4′-((6-butyl-5-((3,5-dimethyphenyl)(ethyl)a-mino)-2,4-dihydroxypyridin-3-yl)sulfonyl)-N-methyl-[1,1′-biphenyl]-2-carboxamide]: 0.01 to 10 nM.
Next, `CCCCc1nc(O)c(S(=O)(=O)c2ccc(-c3cccnc3C)cc2)c(O)c1N(CC)c1cc(C)cc(C)c1` [Example 183, 6-butyl-5-((3,5-di-methylphenyl)(ethyl)a-mino)-3-((4-(2-methylpyridin-3-yl)phenyl)sulfonyl)pyri-dine-2,4-diol]: 10 to 100 nM; `CCCCc1nc(O)c(S(=O)(=O)c2ccc(-c3ccccc3C(=O)NC)cc2)c(O)c1N1CCCCc2ccccc21` [Example 184, 4′-((6-butyl-2,4-dihydroxy-5-(2,3,4,5-tetrahydro-1H-benzo[b]azepin-1-yl)pyridin-3-yl)sulfonyl)-N-methyl-[1,1′-biphenyl]-2-carboxamide]: 10 to 100 nM.
For the molecule `CCCCc1nc(O)c(S(=O)(=O)c2ccc(-c3ccccc3C(=O)NC)cc2)c(O)c1N(CC)c1cccc(C#N)c1` [Example 185, 4′-((6-butyl-5-((3-cyanophenyl)(ethyl)a-mino)-2,4-dihydroxypyridin-3-yl)sulfonyl)-N-methyl-[1,1′-biphenyl]-2-carboxamide], the EC50 lay in the range of 0.01 to 10 nM.
The value for `CCCCc1nc(O)c(S(=O)(=O)c2ccc(-c3ccccc3C(=O)N(C)C)cc2)c(O)c1N(CC)c1cccc(C#N)c1` [Example 186, 4′-((6-butyl-5-((3-cyanophenyl)(ethyl)a-mino)-2,4-dihydroxypyridin-3-yl)sulfonyl)-N,N-dimethyl-[1,1′-biphenyl]-2-carboxamide] was 0.01 to 10 nM.
Next, `CCN(c1ccccc1)c1c(-c2cnc(C)s2)nc(O)c(S(=O)(=O)c2ccc(-c3ccncc3C)cc2)c1O` [Example 187, 5-(ethyl(phenyl)amino)-3-((4-(3-methylpyridin-4-yl)phenyl)sulfonyl)-6-(2-methylthiazol-5-yl)pyridine-2,4-diol]: 0.01 to 10 nM.
